Source: ChEMBL document CHEMBL5584313, “Design and Synthesis of 7-Oxabicyclo[2.2.1]heptane-2,3-dicarboxylic Acid Derivatives as PP5 Inhibitors To Reverse Temozolomide Resistance in Glioblastoma Multiforme” (J Med Chem, 2024)
Starred links: 1 amine or outer side, 2 acyl side, 3 side chain; linkers in the order of their positions; H or OH if unused. Positions of bridges follow the written chain, without caps; N, C: chain ends. Non-standard residues stand in square brackets, D forms with d. Residues, ends and D or L forms follow the SMILES beside them. Adda = CO[C@@H](Cc1ccccc1)[C@@H](C)/C=C(C)/C=C/[C@H](N[*:1])[C@H](C)C(=O)[*:2]; dAsp(3S-Me) = C[C@H](C(=O)[*:3])[C@@H](N[*:1])C(=O)[*:2]; d(γGlu) = O=C(O)[C@@H](CCC(=O)[*:2])N[*:1]; NMeDha = C=C(NC)C(=O)O

How the values were obtained:
[1] = Aqueous stability of compound assessed as compound remaining measured at 240 mins by HPLC assay; type: physicochemical; conditions: aqueous solution, read-out: Stability
[2] = Inhibition of PP2A (unknown origin)

Compound | remaining at 4 h [1] [%] | IC50 [2] [nM]
O=C(O)[C@@H]1[C@H](C(=O)N2CCc3ccccc32)[C@H]2CC[C@@H]1O2 | 52.8 | –
O=C(O)[C@@H]1[C@H](C(=O)NC2CCCC2)[C@H]2CC[C@@H]1O2 | 72.2 | –
O=C(O)[C@@H]1[C@H](C(=O)N2CCN(c3ccccc3)CC2)[C@H]2CC[C@@H]1O2 | 93 | –
C=C1[C@@H](O)[C@@H]2O[C@]3(CC[C@H](/C=C/[C@@H](C)[C@@H]4CC(C)=C[C@@]5(O[C@H](C[C@@](C)(O)C(=O)O)CC[C@H]5O)O4)O3)CC[C@H]2O[C@@H]1[C@@H](O)C[C@H](C)[C@H]1O[C@@]2(CCCCO2)CC[C@H]1C [OKADAIC ACID] | – | 0.1
C=C1C(=O)N[C@H](C)C(=O)N[C@@H](CC(C)C)C(=O)N[C@@H](C(=O)O)[C@H](C)C(=O)N[C@@H](CCCNC(=N)N)C(=O)N[C@@H](/C=C/C(C)=C/[C@H](C)[C@H](Cc2ccccc2)OC)[C@H](C)C(=O)N[C@@H](C(=O)O)CCC(=O)N1C [MICROCYSTIN-LR] (R[Adda][d(γGlu)][NMeDha][dA]L[dAsp(3S-Me)]-OH; lactam N-7) | – | 0.04
C[C@@]12C(=O)OC(=O)[C@]1(C)[C@H]1CC[C@@H]2O1 [CANTHARIDIN] | – | 160
C[C@@](O)(/C=C/[C@H]1CC=CC(=O)O1)[C@@H](C[C@@H](O)\C=C/C=C\C=C\CO)OP(=O)(O)O [FOSTRIECIN] | – | 1.5
CC1c2ccccc2CN1C(=O)[C@@H]1[C@H](C(=O)O)[C@H]2CC[C@@H]1O2 (some centres undefined) | 71.8 | –
O=C(NC1CCCCC1)[C@@H]1[C@H](C(=O)O)[C@H]2CC[C@@H]1O2 | 73.2 | –
